In US20230167088A1, “1-PYRAZINYLPYRAZOLYL-3-OXYALKYL ACIDS AND THEIR DERIVATIVES, AND THEIR USE FOR CONTROL OF UNDESIRED PLANT GROWTH” (BAYER AKTIENGESELLSCHAFT, priority 2020, published 2023):

How the values were obtained:
ECHCG [1] = assay: Herbicidal pre-emergence action 2a (greenhouse pots, visual scoring); format: in vivo, Echinochloa crus-galli; conditions: dosage 320 g/ha, visual scoring after about 3 weeks
From the text: (§1) [table] a) Seeds of monocotyledonous and dicotyledonous weed plants and crop plants are placed in plastic or organic plant pots and covered with soil. The compounds of the invention, formulated in the form of wettable powders (WP) or as emulsion concentrates (EC), are then applied onto the surface of the covering soil as aqueous suspension or emulsion with addition of 0.5% additive at a water application rate of 600 1/ha (converted). After the treatment, the pots are placed in a greenhouse and kept under good growth conditions for the trial plants. After about 3 weeks, the effect of the preparations is scored visually in comparison with untreated controls as percentages. For example, 100% activity=the plants have died, 0% activity=like control plants. Tables B1 to B15 below show the effects of selected compounds of the general formula (I) according to Tables 1 and 2 on various harmful plants and an application rate corresponding to 320 g/ha and/or 80 g/ha, which were obtained by the experimental procedure mentioned above.

ECHCG [2] = assay: Herbicidal post-emergence action 1b (twin sowing, 1280 g/ha); format: in vivo, Echinochloa crus-galli; conditions: dosage 1280 g/ha, visual rating about 3 weeks after treatment
Experimental: (§2) [table] b) Seeds of mono- and dicotyledonous weed plants are placed in plastic pots in sandy loam soil (twin sowing with one species each of mono- or dicotyledonous weed plants per pot), covered with soil and cultivated in a greenhouse under controlled growth conditions. 2 to 3 weeks after sowing, the test plants are treated at the one-leaf stage. The compounds of the invention, formulated in the form of wettable powders (WP) or as emulsion concentrates (EC), are applied to the green parts of the plants as aqueous suspension or emulsion with addition of 0.5% additive at a water application rate equivalent to 600 litres per hectare. After the test plants have been kept in the greenhouse under optimum growth conditions for about 3 weeks, the activity of the preparations is rated visually in comparison to untreated controls. For example, 100% activity=the plants have died, 0% activity=like control plants. Tables A16 to A21 below show the effects of selected compounds of the general formula (I) according to Tables 1 and 2 on various harmful plants and at an application rate corresponding to 1280 g/ha, which were obtained by the experimental procedure mentioned above.

MATIN [3] = assay: as above; format: in vivo, Matricaria inodora; conditions: dosage 1280 g/ha, visual rating about 3 weeks after treatment
Experimental: as §2

POAAN [4] = assay: Herbicidal pre-emergence action 2b (doubly sown, 1280 g/ha); format: in vivo, Poa annua; conditions: doubly sown pots, dosage 1280 g/ha, visual scoring after about 3 weeks
From the text: (§3) [table] b) Seeds of mono- and dicotyledonous weed plants are placed in plastic pots in sandy loam soil (doubly sown with one species each of mono- or dicotyledonous weed plants per pot) and covered with soil. The compounds of the invention, formulated in the form of wettable powders (WP) or as emulsion concentrates (EC), are then applied onto the surface of the covering soil as aqueous suspension or emulsion with addition of 0.5% additive at a water application rate equivalent to 600 litres per hectare. After the treatment, the pots are placed in a greenhouse and kept under good growth conditions for the trial plants. After about 3 weeks, the effect of the preparations is scored visually in comparison with untreated controls as percentages. For example, 100% activity=the plants have died, 0% activity=like control plants. Tables B16 to B21 below show the effects of selected compounds of the general formula (I) according to Tables 1 and 2 on various harmful plants and at an application rate corresponding to 1280 g/ha, which were obtained by the experimental procedure mentioned above.

ECHCG [5] = assay: as above; format: in vivo, Echinochloa crus-galli; conditions: doubly sown pots, dosage 1280 g/ha, visual scoring after about 3 weeks
From the text: as §3

AMARE [6] = assay: as above; format: in vivo, Amaranthus retroflexus; conditions: doubly sown pots, dosage 1280 g/ha, visual scoring after about 3 weeks
From the text: as §3

MATIN [7] = assay: as above; format: in vivo, Matricaria inodora; conditions: doubly sown pots, dosage 1280 g/ha, visual scoring after about 3 weeks
From the text: as §3

STEME [8] = assay: as above; format: in vivo, Stellaria media; conditions: doubly sown pots, dosage 1280 g/ha, visual scoring after about 3 weeks
From the text: as §3

ALOMY [9] = assay: Herbicidal post-emergence action 1a (greenhouse pots, visual rating); format: in vivo, Alopecurus myosuroides; conditions: Dosage 320 g/ha; rated visually about 3 weeks after treatment; 100% = plants have died, 0% = like control plants
Experimental: (§4) [table] a) Seeds of monocotyledonous and dicotyledonous weeds and crop plants are placed in sandy loam in plastic or organic plant pots, covered with soil and cultivated in a greenhouse under controlled growth conditions. 2 to 3 weeks after sowing, the test plants are treated at the one-leaf stage. The compounds of the invention, formulated in the form of wettable powders (WP) or as emulsion concentrates (EC), are then sprayed onto the green parts of the plants as aqueous suspension or emulsion with addition of 0.5% additive at a water application rate of 600 1/ha (converted). After the test plants have been kept in the greenhouse under optimum growth conditions for about 3 weeks, the activity of the preparations is rated visually in comparison to untreated controls. For example, 100% activity=the plants have died, 0% activity=like control plants. Tables A1 to A15 below show the effects of selected compounds of the general formula (I) according to Tables 1 and 2 on various harmful plants and an application rate corresponding to 320 g/ha and/or 80 g/ha, which were obtained by the experimental procedure mentioned above.

AVEFA = assay: as above; format: in vivo, Avena fatua; conditions: Dosage 320 g/ha; rated visually about 3 weeks after treatment; 100% = plants have died, 0% = like control plants
Experimental: as §4

LOLRI [10] = assay: as above; format: in vivo, Lolium rigidum; conditions: Dosage 320 g/ha; rated visually about 3 weeks after treatment; 100% = plants have died, 0% = like control plants
Experimental: as §4

AMARE [11] = assay: as above; format: in vivo, Amaranthus retroflexus; conditions: visual rating about 3 weeks after treatment
Experimental: as §4

PHBPU = assay: as above; format: in vivo, Pharbitis purpurea; conditions: dosage 320 g/ha, visual rating about 3 weeks after treatment
Experimental: as §4

VIOTR [12] = assay: as above; format: in vivo, Viola tricolor; conditions: visual rating about 3 weeks after treatment
Experimental: as §4

VERPE [13] = assay: as above; format: in vivo, Veronica persica; conditions: dosage 320 g/ha, visual rating about 3 weeks after treatment
Experimental: as §4

POAAN [14] = assay: Herbicidal post-emergence action 1b (twin sowing, 1280 g/ha); format: in vivo, Poa annua; conditions: dosage 1280 g/ha, visual rating about 3 weeks after treatment
Experimental: as §2

STEME [15] = assay: as above; format: in vivo, Stellaria media; conditions: dosage 1280 g/ha, visual rating about 3 weeks after treatment
Experimental: as §2

ALOMY [16] = assay: Herbicidal pre-emergence action 2a (greenhouse pots, visual scoring); format: in vivo, Alopecurus myosuroides; conditions: dosage 320 g/ha, visual scoring after about 3 weeks
From the text: as §1

DIGSA = assay: as above; format: in vivo, Digitaria sanguinalis; conditions: dosage 320 g/ha, visual scoring after about 3 weeks
From the text: as §1

LOLRI [17] = assay: as above; format: in vivo, Lolium rigidum; conditions: dosage 320 g/ha, visual scoring after about 3 weeks vs untreated controls
From the text: as §1

SETVI = assay: as above; format: in vivo, Setaria viridis; conditions: dosage 320 g/ha, visual scoring after about 3 weeks vs untreated controls
From the text: as §1

AMARE [18] = assay: as above; format: in vivo, Amaranthus retroflexus; conditions: dosage 320 g/ha, visual scoring after about 3 weeks vs untreated controls
From the text: as §1

MATIN [19] = assay: as above; format: in vivo, Matricaria inodora; conditions: dosage 320 g/ha, visual scoring after about 3 weeks vs untreated controls
From the text: as §1

VIOTR [20] = assay: as above; format: in vivo, Viola tricolor; conditions: dosage 320 g/ha, visual scoring after about 3 weeks vs untreated controls
From the text: as §1

VERPE [21] = assay: as above; format: in vivo, Veronica persica; conditions: dosage 320 g/ha, visual scoring after about 3 weeks vs untreated controls
From the text: as §1

C[C@@H](Oc1nn(-c2cnccn2)c(-c2cncc(F)c2)c1Cl)C(=O)O [Example 1-97]
100%: Pre-emergence action against ECHCG in % (ECHCG [1])

COC(=O)COc1nn(-c2cnccn2)c(-c2ccnc(F)c2)c1Cl [Example I-06]
90%: Post-emergence action at 1280 g/ha against MATIN in % (MATIN [3]) | Pre-emergence action at 1280 g/ha against AMARE in % (AMARE [6]) | Pre-emergence action at 1280 g/ha against MATIN in % (MATIN [7])
100%: Post-emergence action at 1280 g/ha against ECHCG in % (ECHCG [2]) | Pre-emergence action at 1280 g/ha against POAAN in % (POAAN [4]) | Pre-emergence action at 1280 g/ha against ECHCG in % (ECHCG [5]) | Pre-emergence action at 1280 g/ha against STEME in % (STEME [8])

COC(=O)[C@H](C)Oc1nn(-c2cnccn2)c(-c2cccc(F)c2)c1Br [Example I-21]
100%: Post-emergence action at 1280 g/ha against POAAN in % (POAAN [14]) | Post-emergence action at 1280 g/ha against STEME in % (STEME [15]) | Pre-emergence action against AMARE in % (AMARE [18]) | Pre-emergence action against VIOTR in % (VIOTR [20]) | Pre-emergence action at 1280 g/ha against POAAN in % (POAAN [4]) | Pre-emergence action at 1280 g/ha against ECHCG in % (ECHCG [5]) | Pre-emergence action at 1280 g/ha against AMARE in % (AMARE [6]) | Pre-emergence action at 1280 g/ha against MATIN in % (MATIN [7]) | Pre-emergence action at 1280 g/ha against STEME in % (STEME [8])
90%: Post-emergence action against ALOMY in % (ALOMY [9]) | Post-emergence action against LOLRI in % (LOLRI [10]) | Post-emergence action against AMARE in % (AMARE [11]; dosage 320 g/ha) | Post-emergence action against VIOTR in % (VIOTR [12]; dosage 320 g/ha) | Post-emergence action at 1280 g/ha against MATIN in % (MATIN [3]) | Pre-emergence action against DIGSA in % (DIGSA) | Pre-emergence action against LOLRI in % (LOLRI [17]) | Pre-emergence action against SETVI in % (SETVI) | Pre-emergence action against VERPE in % (VERPE [21])
80%: Post-emergence action against AVEFA in % (AVEFA) | Post-emergence action against AMARE in % (AMARE [11]; dosage 80 g/ha) | Post-emergence action against PHBPU in % (PHBPU) | Post-emergence action against VIOTR in % (VIOTR [12]; dosage 80 g/ha) | Post-emergence action against VERPE in % (VERPE [13]) | Pre-emergence action against ALOMY in % (ALOMY [16]) | Pre-emergence action against MATIN in % (MATIN [19])
